Laboratory results: PubChem BioAssay (NCI)
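Assay format: 96-well plates, 48-hour exposure. At the GI50, growth is halved. Definition used: TGI = concentration required for complete inhibition of growth.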

Columns and labels:
Assay in all cases: NCI-60 cell line screen, 48 h
[1] = tested on: A549 NSCLC
[2] = tested on: LOX IMVI melanoma
[3] = tested on: TK-10 renal
[4] = tested on: NCI-H460 lung
[5] = tested on: UACC-257 melanoma
[6] = tested on: OVCAR-3 ovarian
[7] = tested on: K-562 leukemia
[8] = tested on: OVCAR-5 ovarian
[9] = tested on: CCRF-CEM leukemia
[10] = tested on: SK-MEL-2 melanoma

Row | Structure (SMILES) | GI50 [1] | TGI [1] | GI50 [2] | TGI [2] | GI50 [3] | TGI [3] | GI50 [4] | TGI [4] | GI50 [5] | TGI [5] | GI50 [6] | TGI [6] | GI50 [7] | TGI [7] | GI50 [8] | TGI [8] | GI50 [9] | TGI [9] | TGI [10]
1 | CO/N=C(\C)COc1ccc2c(=O)c(-c3ccccc3)coc2c1 | 27.1 µM | > 100 µM | 42.5 µM | > 100 µM | 20 µM | 42.9 µM | 30.4 µM | > 100 µM | 25.6 µM | 97.3 µM | 30.2 µM | 74.2 µM | > 100 µM | > 100 µM | 3.23 µM | 43.8 µM | > 100 µM | > 100 µM | –
2 | COc1cc(C2C(C(=O)O)=C(COC(C)=O)Oc3cc4c(cc32)OCO4)cc(OC)c1OC (stereo not drawn) | – | > 100 µM | – | > 100 µM | – | > 100 µM | – | > 100 µM | – | > 100 µM | – | > 100 µM | – | > 100 µM | – | > 100 µM | – | > 100 µM | > 100 µM
3 | CCCCCCOP(=O)(OCCCCCC)C(NC(=O)OCC)(C(F)(F)F)C(F)(F)F | – | > 100 µM | – | 56.1 µM | – | > 100 µM | – | > 100 µM | – | – | – | > 100 µM | – | > 100 µM | – | > 100 µM | – | > 100 µM | 72.2 µM
4 | CNC(=O)N(C)COC | – | > 100 µM | – | > 100 µM | – | – | – | > 100 µM | – | > 100 µM | – | > 100 µM | – | – | – | > 100 µM | – | > 100 µM | > 100 µM
5 | CCOC(=O)C(O)(NC(=O)c1ccccc1F)C(F)(F)F (stereo not drawn) | – | > 100 µM | – | > 100 µM | – | > 100 µM | – | – | – | > 100 µM | – | > 100 µM | – | > 100 µM | – | > 100 µM | – | > 100 µM | > 100 µM
6 | N#Cc1c(N)sc2c1-c1ccccc1OC2 | – | > 100 µM | – | > 100 µM | – | > 100 µM | – | > 100 µM | – | > 100 µM | – | 61.7 µM | – | > 100 µM | – | > 100 µM | – | 36 µM | > 100 µM
7 | CCc1ccc2nc(-c3ccc(O)cc3)sc2c1 | – | 44.9 µM | – | 33.6 µM | – | 35.7 µM | – | 41.3 µM | – | 35.7 µM | – | 28.1 µM | – | 54.5 µM | – | 28.6 µM | – | – | 31.9 µM
